In patent publication US20040229791A1, “Compositions and methods of modulating TGF-beta activity by fatty acids” (priority 2002, published 2004):

What was measured:
[1] = target: T1, 125I-TGF-β1-α2M* complex (Homo sapiens, UniProt P01023); test: Dissociation of preformed 125I-TGF-β1-α2M* complex; type: binding; conditions: added after 30 min preincubation of complex
T1 construct: was purified from pooled citrate-treate human plasma; from tissue; host or cells: pooled citrate-treated human plasma
T1 sequence (P01023 24-1474): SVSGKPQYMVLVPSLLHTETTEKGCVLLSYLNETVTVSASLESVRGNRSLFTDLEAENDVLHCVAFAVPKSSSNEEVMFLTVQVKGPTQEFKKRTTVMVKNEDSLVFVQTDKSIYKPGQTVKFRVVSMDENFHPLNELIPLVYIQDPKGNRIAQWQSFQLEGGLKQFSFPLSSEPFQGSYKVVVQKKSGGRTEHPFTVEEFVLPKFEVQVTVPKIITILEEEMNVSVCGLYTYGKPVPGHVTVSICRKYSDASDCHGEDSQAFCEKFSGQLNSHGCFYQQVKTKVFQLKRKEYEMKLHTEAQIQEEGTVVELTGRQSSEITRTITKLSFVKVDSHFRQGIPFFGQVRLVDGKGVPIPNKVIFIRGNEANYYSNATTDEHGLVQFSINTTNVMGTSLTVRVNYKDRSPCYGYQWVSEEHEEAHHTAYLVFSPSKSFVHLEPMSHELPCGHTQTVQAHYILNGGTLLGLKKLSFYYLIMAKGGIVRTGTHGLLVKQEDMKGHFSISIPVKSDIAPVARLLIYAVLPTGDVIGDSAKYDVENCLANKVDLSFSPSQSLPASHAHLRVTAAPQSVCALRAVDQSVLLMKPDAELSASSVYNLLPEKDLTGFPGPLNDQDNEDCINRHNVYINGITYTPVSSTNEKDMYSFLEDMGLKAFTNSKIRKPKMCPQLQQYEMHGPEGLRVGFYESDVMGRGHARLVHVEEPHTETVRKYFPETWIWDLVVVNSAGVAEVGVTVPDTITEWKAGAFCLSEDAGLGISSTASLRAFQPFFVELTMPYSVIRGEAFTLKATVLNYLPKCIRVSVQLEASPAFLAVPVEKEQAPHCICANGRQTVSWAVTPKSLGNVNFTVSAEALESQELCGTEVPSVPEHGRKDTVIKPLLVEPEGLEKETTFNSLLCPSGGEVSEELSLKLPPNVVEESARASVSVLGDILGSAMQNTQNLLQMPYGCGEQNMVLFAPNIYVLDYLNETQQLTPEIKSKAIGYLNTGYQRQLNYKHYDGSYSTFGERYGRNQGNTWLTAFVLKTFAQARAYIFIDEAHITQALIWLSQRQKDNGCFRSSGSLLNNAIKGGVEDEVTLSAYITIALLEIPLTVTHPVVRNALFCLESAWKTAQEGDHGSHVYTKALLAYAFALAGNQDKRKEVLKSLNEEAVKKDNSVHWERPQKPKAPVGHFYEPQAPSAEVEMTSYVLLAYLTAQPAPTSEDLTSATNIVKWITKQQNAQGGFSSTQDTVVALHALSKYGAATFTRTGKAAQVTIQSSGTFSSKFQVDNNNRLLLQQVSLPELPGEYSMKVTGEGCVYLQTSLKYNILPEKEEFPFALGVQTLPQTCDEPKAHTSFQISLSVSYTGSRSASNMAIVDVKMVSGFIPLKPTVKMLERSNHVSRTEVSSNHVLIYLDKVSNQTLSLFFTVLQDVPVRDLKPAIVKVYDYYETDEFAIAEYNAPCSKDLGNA
Protocol: To determine whether fatty acids are capable of dissociating TGF- ? - ? 2M* complexes, various concentrations of arachidonic acid were added to a reaction mixture containing ^125I-TGF- ? 1 or ^125I-TGF ? β3 and α2M* which had been preincubated at room temperature for 30 mi 30 minutes at room temperature, the ^125I-TGF ? β isoform-α2M* complexes in the reaction mixtures were analyzed by 5% non-denaturing PAGE. […] However, lower concentrations of arachidonic acid were effective in inhibiting complex formation of ^125I-TGF- ? 1 and α2M* than were required to dissociate the ^125I-TGF- ? 1- ? 2M* complex.

[2] = system: TGF-β receptors in Mv1Lu cells; test: Binding of 125I-TGF-β2 to Mv1Lu cells in the presence of α2M*; type: cell-based, mink; conditions: 30 μM arachidonic acid, 200 μg/ml α2M*
From the text: The levels of TGF ? β and ? 2M* also increase dramatically. α2M* is capable of inhibiting TGF- ? activity by forming complexes with TGF- ? and thus preventing it from binding to TGF ? β receptors in cells involved. Fatty acids may potentiate TGF ? β activity by blocking complex formation of ? 2M* and TGF ? β under these conditions. To test this possibility, we determined the effects of arachidonic acid on ^125I-TGF- ? 2 binding (in the presence and absence of α2M*) to Mv1Lu cells. ? 2M* is known to inhibit TGF- ? 2 more strongly than TGF ? β1 binding to T receptors in cells (13). Various concentrations of ^125I-TGF- ? 2 were preincubated with 200 μg/ml of ? 2M* in the presence or absence of 30 μM arachidonic acid for 30 min prior to the performance of binding assays in Mv1Lu cells. […] The residual ^125I-TGF- ? binding associated with the cells after ? 2M* inhibition was mainly due to non-specific binding of ^125I-TGF- ? 2. […] In the presence of 200 μg/ml of ? 2M*, the dose-response curve of TGF ? β2 shifted to the right. […] Addition of arachidonic acid at 0.5 and 1 μM reversed the inhibitory effect of. α2M* on TGF- ? 2-induced growth inhibition as measured by [methyl-^3H]-thymidine incorporation.
Binding of ^125I-TGF- ? […] After 2.5 hr at 0° C., the cells were washed with binding buffer, and the cell-associated radioactivity was determined. […]

CCCCC/C=C\C/C=C\C/C=C\C/C=C\CCCC(=O)O [arachidonic acid]
dissociation of the 125I-TGF-β1-α2M* complex [1]: able to dissociate | reversal of α2M* inhibition of 125I-TGF-β2 binding to Mv1Lu cells [2]: completely reversed
